The values below come from PMC4564290 (Journal of Molecular and Cellular Cardiology, 2015).

One series concerns the target N588K hERG (Homo sapiens, UniProt Q12809, N588K). Also noted: expressed in transfected cells; host or cells: HEK cells. The note with it: IC50 mutant/IC50 WT; mammalian expression; ref 15 of supplement; cited from earlier work.
The conditions of series [1]: cited from earlier work.
Series [2] concerns the target T1, wild-type (WT) hERG channels (Homo sapiens, UniProt Q12809).
T1 construct: expressed in transfected cells
Briefly: Whole-cell patch clamp of WT IhERG in HEK293 cells at 37 °C. The settings on record: for Fraction of unblocked IhERG: 6–8 min; for Whole-cell IhERG current density: ~6 min, drug-free control 315.3 ± 56.7. The series is classed as cell-based. (In general: In patch-clamp work, channel activity is measured electrically.)
Description: (§1) HEK cells stably or transiently expressing hERG channel constructs were cultured as previously described [[34,37]]. The cells were plated in 40 mm petri dishes at least 48 h before transfection and incubated at 37 °C (5% CO2). Cells were transfected with Lipofectamine™ LTX (Invitrogen) following the manufacturer's instructions. The amount of transfected hERG construct DNA varied between 0.2 and 1.0 μg depending on the level of functional expression (assessed as current magnitudes) of each hERG channel construct. 0.5 to 1.0 μg of CD8 was co-transfected as a transfection-marker and successfully transfected cells were identified using Dynabeads® (Invitrogen). Cells were plated on small sterilized glass shards in 40 mm petri dishes and incubated at 37 °C (5% CO2) for at least 24 h before electrophysiological recording.
(§2) Glass shards containing plated cells were placed in a recording chamber mounted on an inverted microscope (Nikon Diaphot, USA). The cells were continuously superfused with a pre-warmed (37 °C) standard Tyrode's solution containing (in mM) the following: 140 NaCl, 4 KCl, 2.5 CaCl2, 1 MgCl2, 10 Glucose, 5 HEPES (titrated to pH 7.4 with NaOH). […] Patch-pipettes were dialysed with an intracellular solution containing (in mM) the following: 130 KCl, 1 MgCl2, 5 EGTA, 5 MgATP, 10 HEPES (titrated to pH 7.2 with KOH). All recordings were made using an Axopatch 200B amplifier (Axon Instruments, now Molecular Devices) and a CV203BU head-stage. Pipette resistance compensation was between 70 and 80%. […] Data digitization rates were 10–25 kHz during all voltage protocols and an appropriate bandwidth of 2–10 kHz was set on the amplifier.
For statistical analysis, data were subject to the Kolmogorov–Smirnov normality test. Statistical comparisons were made using paired or unpaired two-tailed t tests, Wilcoxon matched pairs signed rank test, Mann–Whitney U test and one way (repeated measures, where indicated) or two way ANOVA, as appropriate.
Block of IhERG was assessed by calculating the reduction in drug of the outward ‘tail’ current at − 40 mV (assessed as the difference in magnitude between peak tail current and instantaneous current activated by the brief (50 ms) depolarization from − 80 to − 40 mV [[24,34,37]]). […] The fractional inhibition at each of four concentrations was calculated using Eq. (1) (supplementary information) and the mean values were plotted as shown in Fig. 1D and then fitted with a standard Hill equation (Eq. (2), supplementary information). […] The low expression and kinetics of some mutant channels included in this study requires that IhERG be studied as an inward current in high (94 mM) [K^+]o [[34,35,37]].
We tested the effect of two concentrations (10 and 100 μM) of each analogue applied from the cell exterior (superfusate) and interior (the latter through the patch-pipette). […] As soon as the whole-cell configuration was achieved the drug molecules were free to diffuse inside the cytoplasm, precluding cells acting as their own control.

For series [3], the target named is T2, F656A hERG (Homo sapiens, UniProt Q12809, F656A). The experiment in a line: Patch clamp of F656A S6 helix mutant IhERG. In kind it is cell-based. Also noted: expressed in transfected cells; host or cells: HEK cells. The note with it: internal (patch-pipette) application 100 µM, tails at -120 mV, n=8 vs control n=12.
Description: as §1, §2
To investigate potential binding determinants in the pore region we studied alanine mutants of three residues (G648, Y652 and F656) located within the channel inner cavity on the S6 helix. […]
A further series relates to F656V hERG. The note with it: cited from earlier work.
Series [4] has as its target T2, F656A hERG. The note with it: 300 μM (profound blocking concentration for WT IhERG), Xenopus oocyte expression; cited from earlier work.
A further series concerns the target Y652A hERG (Homo sapiens, UniProt Q12809, Y652A). Also noted: expressed in transfected cells. The note with it: 300 μM (profound blocking concentration for WT IhERG), Xenopus oocyte expression; cited from earlier work.
In the next series the test system is L-type calcium current. The note with it: cited from earlier work.
In series [5] the test system is feline ventricular E-4031 sensitive delayed rectifier current. The settings on record: cited from earlier work.
Series [6] has as its system Kv1.5 V505 mutated to phenylalanine. Also noted: method as in PMID 17872968. The settings on record: cited from earlier work.
Setting [7] is: external application (superfusate) 10 μM.
[8] abbreviates: external application (superfusate) 100 μM.
Setting [9] is: internal application via patch-pipette 10 μM.
[10] abbreviates: internal application via patch-pipette 100 μM.

Entries after “also recorded” stand apart in the source; their conditions may differ.

T1 sequence (Q12809 whole entry): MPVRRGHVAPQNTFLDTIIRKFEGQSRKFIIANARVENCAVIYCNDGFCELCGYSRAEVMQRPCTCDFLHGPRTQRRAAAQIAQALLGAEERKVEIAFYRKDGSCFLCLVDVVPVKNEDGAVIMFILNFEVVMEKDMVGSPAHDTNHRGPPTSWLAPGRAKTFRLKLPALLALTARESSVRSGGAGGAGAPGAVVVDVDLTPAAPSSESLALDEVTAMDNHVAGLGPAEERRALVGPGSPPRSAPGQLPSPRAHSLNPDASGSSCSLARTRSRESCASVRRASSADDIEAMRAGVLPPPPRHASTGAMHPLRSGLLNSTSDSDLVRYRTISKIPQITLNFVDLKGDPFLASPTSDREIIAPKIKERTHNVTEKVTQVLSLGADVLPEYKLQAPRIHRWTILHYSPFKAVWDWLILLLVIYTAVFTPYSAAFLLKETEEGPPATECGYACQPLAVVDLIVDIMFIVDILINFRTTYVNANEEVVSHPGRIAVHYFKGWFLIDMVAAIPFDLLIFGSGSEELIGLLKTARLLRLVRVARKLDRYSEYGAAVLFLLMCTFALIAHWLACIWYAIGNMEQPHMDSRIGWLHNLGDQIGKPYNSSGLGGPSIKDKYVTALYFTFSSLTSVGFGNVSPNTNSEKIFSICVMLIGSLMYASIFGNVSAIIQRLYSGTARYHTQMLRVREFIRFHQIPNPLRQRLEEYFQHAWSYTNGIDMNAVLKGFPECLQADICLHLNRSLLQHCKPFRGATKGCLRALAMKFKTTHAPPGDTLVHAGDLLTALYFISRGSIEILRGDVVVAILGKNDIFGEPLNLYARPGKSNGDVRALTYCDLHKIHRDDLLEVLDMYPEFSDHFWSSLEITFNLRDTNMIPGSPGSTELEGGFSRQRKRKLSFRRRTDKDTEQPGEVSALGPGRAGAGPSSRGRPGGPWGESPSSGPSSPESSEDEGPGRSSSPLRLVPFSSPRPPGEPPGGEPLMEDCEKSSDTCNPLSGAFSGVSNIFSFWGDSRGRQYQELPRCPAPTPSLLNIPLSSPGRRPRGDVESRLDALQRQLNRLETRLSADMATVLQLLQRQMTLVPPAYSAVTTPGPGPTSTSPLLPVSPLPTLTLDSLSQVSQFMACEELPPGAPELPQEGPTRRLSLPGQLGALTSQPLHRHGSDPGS
T2 sequence (Q12809 whole entry F656A): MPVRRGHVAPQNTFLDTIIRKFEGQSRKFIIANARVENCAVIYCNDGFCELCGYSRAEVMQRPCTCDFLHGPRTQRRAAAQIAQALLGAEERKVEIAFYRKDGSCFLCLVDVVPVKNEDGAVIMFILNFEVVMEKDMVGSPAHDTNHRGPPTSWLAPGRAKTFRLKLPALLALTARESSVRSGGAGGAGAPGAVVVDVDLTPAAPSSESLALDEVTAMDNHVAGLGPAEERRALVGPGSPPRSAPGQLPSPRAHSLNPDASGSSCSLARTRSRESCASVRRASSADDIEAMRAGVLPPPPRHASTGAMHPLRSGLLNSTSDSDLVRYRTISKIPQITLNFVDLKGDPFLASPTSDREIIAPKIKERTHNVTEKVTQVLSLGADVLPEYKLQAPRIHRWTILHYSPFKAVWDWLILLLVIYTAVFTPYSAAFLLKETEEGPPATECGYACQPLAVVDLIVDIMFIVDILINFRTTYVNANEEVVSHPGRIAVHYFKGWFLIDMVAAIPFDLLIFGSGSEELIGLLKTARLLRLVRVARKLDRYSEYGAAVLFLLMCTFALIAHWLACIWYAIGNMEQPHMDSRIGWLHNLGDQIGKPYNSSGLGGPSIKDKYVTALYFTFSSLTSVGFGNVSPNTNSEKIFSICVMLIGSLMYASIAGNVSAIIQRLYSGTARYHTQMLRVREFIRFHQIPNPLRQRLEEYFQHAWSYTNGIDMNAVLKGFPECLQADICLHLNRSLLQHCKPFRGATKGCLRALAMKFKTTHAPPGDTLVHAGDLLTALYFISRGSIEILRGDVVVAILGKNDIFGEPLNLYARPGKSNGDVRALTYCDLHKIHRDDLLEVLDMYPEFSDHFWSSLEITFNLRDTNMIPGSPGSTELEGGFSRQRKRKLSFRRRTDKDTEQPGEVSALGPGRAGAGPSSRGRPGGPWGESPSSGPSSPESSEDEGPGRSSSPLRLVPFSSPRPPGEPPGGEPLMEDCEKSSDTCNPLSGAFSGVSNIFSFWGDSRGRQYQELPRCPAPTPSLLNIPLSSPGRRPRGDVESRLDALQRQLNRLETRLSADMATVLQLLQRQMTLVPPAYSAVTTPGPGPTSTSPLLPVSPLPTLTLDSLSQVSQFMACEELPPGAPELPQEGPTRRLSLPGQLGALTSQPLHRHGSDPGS
Sequence of N588K hERG (Q12809 whole entry N588K): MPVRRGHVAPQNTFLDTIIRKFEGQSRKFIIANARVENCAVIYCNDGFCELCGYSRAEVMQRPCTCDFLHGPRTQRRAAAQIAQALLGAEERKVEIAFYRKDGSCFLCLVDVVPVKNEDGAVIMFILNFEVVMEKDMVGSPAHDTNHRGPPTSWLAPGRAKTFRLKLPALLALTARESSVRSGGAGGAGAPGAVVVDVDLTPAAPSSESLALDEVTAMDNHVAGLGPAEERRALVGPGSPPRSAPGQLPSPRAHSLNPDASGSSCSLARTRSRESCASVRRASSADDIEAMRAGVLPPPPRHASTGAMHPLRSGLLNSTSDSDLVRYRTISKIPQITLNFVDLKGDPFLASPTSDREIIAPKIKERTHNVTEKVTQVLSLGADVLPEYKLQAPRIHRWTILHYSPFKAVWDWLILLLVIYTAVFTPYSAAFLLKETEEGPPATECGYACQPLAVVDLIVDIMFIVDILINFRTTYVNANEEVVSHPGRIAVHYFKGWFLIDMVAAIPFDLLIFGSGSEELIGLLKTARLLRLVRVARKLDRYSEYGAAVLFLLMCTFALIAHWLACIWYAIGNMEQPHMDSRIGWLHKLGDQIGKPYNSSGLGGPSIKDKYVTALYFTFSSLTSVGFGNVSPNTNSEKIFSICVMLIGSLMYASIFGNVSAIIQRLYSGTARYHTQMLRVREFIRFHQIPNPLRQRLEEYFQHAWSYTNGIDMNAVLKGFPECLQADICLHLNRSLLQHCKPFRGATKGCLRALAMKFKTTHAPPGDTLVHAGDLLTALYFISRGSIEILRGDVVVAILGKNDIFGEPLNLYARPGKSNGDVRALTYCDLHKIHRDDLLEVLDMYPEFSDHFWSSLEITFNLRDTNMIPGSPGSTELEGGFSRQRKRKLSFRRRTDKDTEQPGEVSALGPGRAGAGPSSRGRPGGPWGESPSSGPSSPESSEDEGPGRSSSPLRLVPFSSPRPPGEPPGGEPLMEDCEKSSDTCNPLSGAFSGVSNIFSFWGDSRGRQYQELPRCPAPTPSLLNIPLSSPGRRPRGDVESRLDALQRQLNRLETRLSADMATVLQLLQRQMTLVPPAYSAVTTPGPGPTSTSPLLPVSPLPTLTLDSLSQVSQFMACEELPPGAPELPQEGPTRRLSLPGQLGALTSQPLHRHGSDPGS
Sequence of Y652A hERG (Q12809 whole entry Y652A): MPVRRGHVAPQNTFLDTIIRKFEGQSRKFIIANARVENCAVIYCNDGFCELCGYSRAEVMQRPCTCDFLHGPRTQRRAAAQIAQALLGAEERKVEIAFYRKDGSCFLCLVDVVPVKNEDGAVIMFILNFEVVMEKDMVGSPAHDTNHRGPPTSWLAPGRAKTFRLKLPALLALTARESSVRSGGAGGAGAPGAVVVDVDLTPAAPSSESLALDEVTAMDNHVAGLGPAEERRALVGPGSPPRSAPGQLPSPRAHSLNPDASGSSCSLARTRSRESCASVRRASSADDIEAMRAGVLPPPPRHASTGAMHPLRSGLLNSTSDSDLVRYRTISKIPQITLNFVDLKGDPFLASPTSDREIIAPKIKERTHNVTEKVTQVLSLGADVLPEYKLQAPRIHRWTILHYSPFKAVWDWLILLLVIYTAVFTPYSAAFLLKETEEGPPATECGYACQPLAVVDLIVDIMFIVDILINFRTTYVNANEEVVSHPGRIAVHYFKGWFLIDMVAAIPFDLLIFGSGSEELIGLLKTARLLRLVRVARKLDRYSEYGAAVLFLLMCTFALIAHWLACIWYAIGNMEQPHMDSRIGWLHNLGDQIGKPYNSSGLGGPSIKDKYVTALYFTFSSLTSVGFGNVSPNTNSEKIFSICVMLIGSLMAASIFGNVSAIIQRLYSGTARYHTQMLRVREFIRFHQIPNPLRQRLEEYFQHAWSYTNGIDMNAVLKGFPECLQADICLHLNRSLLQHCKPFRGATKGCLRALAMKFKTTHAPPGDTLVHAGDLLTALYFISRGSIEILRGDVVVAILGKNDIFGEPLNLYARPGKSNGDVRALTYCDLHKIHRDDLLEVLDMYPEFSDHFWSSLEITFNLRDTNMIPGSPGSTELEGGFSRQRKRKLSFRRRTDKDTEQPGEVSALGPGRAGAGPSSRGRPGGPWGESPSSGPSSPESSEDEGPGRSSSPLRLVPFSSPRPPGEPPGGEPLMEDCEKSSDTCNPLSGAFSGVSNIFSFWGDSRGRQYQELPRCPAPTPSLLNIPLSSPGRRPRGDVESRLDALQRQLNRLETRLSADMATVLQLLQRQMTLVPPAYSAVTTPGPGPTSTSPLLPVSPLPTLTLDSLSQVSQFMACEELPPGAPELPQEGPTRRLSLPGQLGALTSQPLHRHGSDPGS

On to `CC(C)NC[C@@H](O)c1ccc(NS(C)(=O)=O)cc1` [D-Sotalol], for which the “Fold-change in IC50 N588K compared to WT IhERG” value at N588K hERG is 20 fold.
For `O=C(NCCN1CCOCC1)c1cc(OCC(F)(F)F)ccc1OCC(F)(F)F` [NU-Flec], the pKa in series [1] was 6.3. Further, the “Fraction of unblocked IhERG” value in series [2] (setting [7]) stood at 75.8 ± 4.4%; in [2] (setting [8]) it was 50.2 ± 4.3%. Further, the “Whole-cell IhERG current density” value in series [2] (setting [9]) is 283.2 ± 63.4 pA/pF; in series [2] (setting [10]), 359.8 ± 56.1 pA/pF.
As to `C[N+]1(C)CCCCC1CNC(=O)c1cc(OCC(F)(F)F)ccc1OCC(F)(F)F` (centres unmarked) [QX-Flec], the “Effect on density of inward F656A IhERG tails vs drug-free control” value on F656A hERG [3] is “ineffective; also recorded: no significant difference; also recorded: little inhibition”. In addition, the “Fraction of unblocked IhERG” value came to 72.2 ± 4.6% in series [2] (setting [7]) and 54.6 ± 3.5% in series [2] (setting [8]). In addition, the “Whole-cell IhERG current density” value in series [2] (setting [9]) is given as 55.3 ± 5.9 pA/pF; in series [2] (setting [10]) it was 9.3 ± 1.9 pA/pF.
For the molecule `C=C[C@H]1C[N@@]2CC[C@H]1C[C@@H]2[C@@H](O)c1ccnc2ccc(OC)cc12` [Quinidine], in the series on F656V hERG, the “Increase in IhERG IC50 with F656V” value was ~ 27 fold.
Take `CC[C@H]1[C@@H]2C[C@H]3[C@@H]4N(C)c5ccccc5[C@]45C[C@@H]([C@H]2[C@H]5O)N3[C@@H]1O` [ajmaline]: the “Inhibitory action on F656A IhERG” value at F656A hERG [4] is “ineffective”. Further, the “Inhibitory action on Y652A IhERG” value at Y652A hERG is recorded as “ineffective”.
For `O=C(NCC1CCCCN1)c1cc(OCC(F)(F)F)ccc1OCC(F)(F)F` (centres unmarked) [flecainide, Flecainide acetate], the figures for the IC50 (in the series on L-type calcium current; in [5]) were around 20 µM and 2.1 µM, respectively. For the same molecule, in series [6], the “Increase in blocking potency on mutating V505 to phenylalanine” value is 9 fold.

For orientation: pKa means the negative logarithm of the acid dissociation constant. By IC50 is commonly meant the concentration that gives 50% inhibition.
